Experimental data as given in patent US12479847B2 (DANA-FARBER CANCER INSTITUTE, INC., priority 2019, dated 2025).

Experiments:
Assay in all cases: KINOMEscan (ScanMAX) kinase profiling
Assay type in all cases: binding
panel of 468 kinases [1] = target: T1, panel of 468 kinases (Homo sapiens, UniProt Q07912); settings: TNK2; 1 μM; read-out: % control
T1 construct: purchased KINOMEscan (ScanMAX) service

panel of 468 kinases [2] = target: T2, panel of 468 kinases (Homo sapiens, UniProt P50750); settings: CDK9; 1 μM; read-out: % control
T2 construct: purchased KINOMEscan (ScanMAX) service

panel of 468 kinases [3] = target: T3, panel of 468 kinases (Homo sapiens, UniProt Q15746); settings: MYLK; 1 μM; read-out: % control
T3 construct: purchased KINOMEscan (ScanMAX) service

panel of 468 kinases [4] = target: T4, panel of 468 kinases (Homo sapiens, UniProt P22607); settings: FGFR3; 1 μM; read-out: % control
T4 construct: purchased KINOMEscan (ScanMAX) service

panel of 468 kinases [5] = target: T5, panel of 468 kinases (Homo sapiens, UniProt O75460); settings: ERN1; 1 μM; read-out: % control
T5 construct: purchased KINOMEscan (ScanMAX) service

panel of 468 kinases [6] = target: T6, panel of 468 kinases (Homo sapiens, UniProt Q16659); settings: ERK3; 1 μM; read-out: % control
T6 construct: purchased KINOMEscan (ScanMAX) service

panel of 468 kinases [7] = target: T7, panel of 468 kinases (Homo sapiens, UniProt Q9H422); settings: HIPK3; 1 μM; read-out: % control
T7 construct: purchased KINOMEscan (ScanMAX) service

panel of 468 kinases [8] = target: T8, panel of 468 kinases (Homo sapiens, UniProt P31749); settings: AKT1; 1 μM; read-out: % control
T8 construct: purchased KINOMEscan (ScanMAX) service

panel of 468 kinases [9] = target: T9, panel of 468 kinases (Homo sapiens, UniProt P08069); settings: IGF1R; 1 μM; read-out: % control
T9 construct: purchased KINOMEscan (ScanMAX) service

panel of 468 kinases [10] = target: T10, panel of 468 kinases (Homo sapiens, UniProt Q8TBX8); settings: PIP5K2C; 1 μM; read-out: % control
T10 construct: purchased KINOMEscan (ScanMAX) service
T10 sequence (Q8TBX8 1-421): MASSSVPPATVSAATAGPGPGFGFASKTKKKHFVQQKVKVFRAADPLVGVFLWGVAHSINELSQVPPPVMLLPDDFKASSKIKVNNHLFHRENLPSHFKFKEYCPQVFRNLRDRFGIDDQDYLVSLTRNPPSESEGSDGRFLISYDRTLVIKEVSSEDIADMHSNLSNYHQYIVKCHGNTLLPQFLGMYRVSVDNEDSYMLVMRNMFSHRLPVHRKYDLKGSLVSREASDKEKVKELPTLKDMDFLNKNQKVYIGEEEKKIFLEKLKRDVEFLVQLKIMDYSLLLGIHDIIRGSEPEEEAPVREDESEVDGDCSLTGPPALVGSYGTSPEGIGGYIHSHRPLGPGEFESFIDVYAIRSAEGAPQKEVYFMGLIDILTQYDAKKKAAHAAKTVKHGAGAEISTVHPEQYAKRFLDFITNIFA

panel of 468 kinases [11] = target: T11, panel of 468 kinases (Homo sapiens, UniProt P51955); settings: NEK2; 1 μM; read-out: % control
T11 construct: purchased KINOMEscan (ScanMAX) service
T11 sequence (P51955 1-445): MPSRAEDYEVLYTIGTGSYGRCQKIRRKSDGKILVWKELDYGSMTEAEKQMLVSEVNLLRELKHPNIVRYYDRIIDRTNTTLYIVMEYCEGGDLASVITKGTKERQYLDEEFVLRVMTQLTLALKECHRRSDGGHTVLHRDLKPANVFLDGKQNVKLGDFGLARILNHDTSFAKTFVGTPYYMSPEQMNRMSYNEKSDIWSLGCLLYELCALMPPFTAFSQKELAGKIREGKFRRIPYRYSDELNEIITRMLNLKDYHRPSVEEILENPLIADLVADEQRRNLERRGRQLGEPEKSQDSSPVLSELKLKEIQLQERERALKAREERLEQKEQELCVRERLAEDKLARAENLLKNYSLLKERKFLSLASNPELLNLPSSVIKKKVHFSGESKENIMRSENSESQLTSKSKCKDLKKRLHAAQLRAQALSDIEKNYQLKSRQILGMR

panel of 468 kinases [12] = target: T12, panel of 468 kinases (Homo sapiens, UniProt Q9NQU5); settings: PAK6; 1 μM; read-out: % control
T12 construct: purchased KINOMEscan (ScanMAX) service
T12 sequence (Q9NQU5 whole entry): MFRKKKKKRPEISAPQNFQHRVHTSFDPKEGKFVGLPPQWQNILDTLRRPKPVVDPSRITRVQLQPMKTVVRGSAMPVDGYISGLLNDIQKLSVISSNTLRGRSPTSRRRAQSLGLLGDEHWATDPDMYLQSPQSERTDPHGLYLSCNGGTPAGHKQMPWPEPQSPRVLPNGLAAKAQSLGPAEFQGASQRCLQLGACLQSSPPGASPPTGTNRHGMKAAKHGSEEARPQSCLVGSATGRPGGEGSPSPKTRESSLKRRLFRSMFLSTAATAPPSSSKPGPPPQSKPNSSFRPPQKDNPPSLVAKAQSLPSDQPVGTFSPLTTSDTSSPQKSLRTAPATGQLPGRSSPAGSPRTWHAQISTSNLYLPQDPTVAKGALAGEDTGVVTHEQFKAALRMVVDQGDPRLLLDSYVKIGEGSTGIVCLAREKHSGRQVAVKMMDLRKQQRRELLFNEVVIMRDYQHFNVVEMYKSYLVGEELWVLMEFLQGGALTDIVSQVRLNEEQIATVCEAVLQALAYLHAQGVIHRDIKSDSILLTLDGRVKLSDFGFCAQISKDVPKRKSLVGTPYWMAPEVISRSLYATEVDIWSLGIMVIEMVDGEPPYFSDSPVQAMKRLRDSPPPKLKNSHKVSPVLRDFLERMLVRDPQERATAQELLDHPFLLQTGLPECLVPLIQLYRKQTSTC

T7 sequence (Q9H422 whole entry): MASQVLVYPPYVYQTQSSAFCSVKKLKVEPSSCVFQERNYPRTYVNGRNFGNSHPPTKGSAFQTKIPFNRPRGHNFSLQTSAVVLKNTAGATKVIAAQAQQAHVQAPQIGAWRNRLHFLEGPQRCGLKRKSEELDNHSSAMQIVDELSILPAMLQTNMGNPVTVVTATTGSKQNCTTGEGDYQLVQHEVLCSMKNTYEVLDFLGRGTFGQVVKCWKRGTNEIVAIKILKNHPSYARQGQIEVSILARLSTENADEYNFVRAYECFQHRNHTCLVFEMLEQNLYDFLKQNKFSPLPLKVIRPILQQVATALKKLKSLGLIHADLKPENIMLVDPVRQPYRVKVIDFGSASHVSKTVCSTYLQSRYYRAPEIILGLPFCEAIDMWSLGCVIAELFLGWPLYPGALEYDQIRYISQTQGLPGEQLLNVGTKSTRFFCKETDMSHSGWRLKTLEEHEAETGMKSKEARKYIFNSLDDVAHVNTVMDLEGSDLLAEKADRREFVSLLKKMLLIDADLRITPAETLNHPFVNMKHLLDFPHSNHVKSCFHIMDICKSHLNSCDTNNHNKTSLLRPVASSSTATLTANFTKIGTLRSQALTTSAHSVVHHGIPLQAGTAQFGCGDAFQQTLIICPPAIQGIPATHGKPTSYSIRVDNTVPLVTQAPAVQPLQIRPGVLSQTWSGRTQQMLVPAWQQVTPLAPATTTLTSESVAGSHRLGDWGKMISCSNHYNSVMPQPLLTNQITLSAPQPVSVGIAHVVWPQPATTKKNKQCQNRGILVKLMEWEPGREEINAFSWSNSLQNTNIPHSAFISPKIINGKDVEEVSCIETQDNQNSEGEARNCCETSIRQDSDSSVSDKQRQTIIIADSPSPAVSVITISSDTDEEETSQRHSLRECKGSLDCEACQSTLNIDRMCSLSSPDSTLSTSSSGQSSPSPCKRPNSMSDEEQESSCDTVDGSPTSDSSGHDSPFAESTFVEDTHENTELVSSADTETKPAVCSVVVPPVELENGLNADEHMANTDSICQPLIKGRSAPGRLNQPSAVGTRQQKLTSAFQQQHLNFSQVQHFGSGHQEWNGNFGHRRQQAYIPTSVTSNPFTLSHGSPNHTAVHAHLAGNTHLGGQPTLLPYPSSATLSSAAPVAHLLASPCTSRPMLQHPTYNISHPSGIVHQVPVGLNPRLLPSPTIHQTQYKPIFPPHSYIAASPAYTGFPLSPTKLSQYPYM
T1 sequence (Q07912 whole entry): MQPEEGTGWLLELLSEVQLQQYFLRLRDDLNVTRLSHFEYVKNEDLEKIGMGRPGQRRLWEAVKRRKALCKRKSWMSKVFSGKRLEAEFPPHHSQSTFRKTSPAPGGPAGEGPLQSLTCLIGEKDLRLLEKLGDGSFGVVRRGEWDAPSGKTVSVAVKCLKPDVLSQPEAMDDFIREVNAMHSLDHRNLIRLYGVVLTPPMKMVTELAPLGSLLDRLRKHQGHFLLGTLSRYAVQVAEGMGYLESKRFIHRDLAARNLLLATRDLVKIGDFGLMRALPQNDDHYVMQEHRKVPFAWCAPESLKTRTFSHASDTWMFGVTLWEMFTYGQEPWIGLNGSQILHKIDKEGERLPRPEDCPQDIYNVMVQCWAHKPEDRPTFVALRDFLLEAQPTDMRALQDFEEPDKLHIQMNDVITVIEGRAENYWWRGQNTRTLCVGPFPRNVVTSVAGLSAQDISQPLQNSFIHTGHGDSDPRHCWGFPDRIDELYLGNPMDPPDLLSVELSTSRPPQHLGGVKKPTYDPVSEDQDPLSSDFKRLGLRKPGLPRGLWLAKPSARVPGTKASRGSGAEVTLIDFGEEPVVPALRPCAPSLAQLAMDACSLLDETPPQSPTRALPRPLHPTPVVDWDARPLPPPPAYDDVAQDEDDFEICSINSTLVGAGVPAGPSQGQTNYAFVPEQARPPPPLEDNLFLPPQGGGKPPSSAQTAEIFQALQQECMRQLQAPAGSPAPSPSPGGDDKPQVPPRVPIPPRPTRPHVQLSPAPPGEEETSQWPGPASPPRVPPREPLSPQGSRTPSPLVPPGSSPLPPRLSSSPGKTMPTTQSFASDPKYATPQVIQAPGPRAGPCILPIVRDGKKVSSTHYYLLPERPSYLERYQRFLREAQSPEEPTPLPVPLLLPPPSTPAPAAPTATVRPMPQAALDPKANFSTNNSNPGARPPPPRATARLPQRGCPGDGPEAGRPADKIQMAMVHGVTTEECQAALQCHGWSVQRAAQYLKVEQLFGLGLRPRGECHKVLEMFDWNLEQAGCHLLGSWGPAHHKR
T4 sequence (P22607 23-806): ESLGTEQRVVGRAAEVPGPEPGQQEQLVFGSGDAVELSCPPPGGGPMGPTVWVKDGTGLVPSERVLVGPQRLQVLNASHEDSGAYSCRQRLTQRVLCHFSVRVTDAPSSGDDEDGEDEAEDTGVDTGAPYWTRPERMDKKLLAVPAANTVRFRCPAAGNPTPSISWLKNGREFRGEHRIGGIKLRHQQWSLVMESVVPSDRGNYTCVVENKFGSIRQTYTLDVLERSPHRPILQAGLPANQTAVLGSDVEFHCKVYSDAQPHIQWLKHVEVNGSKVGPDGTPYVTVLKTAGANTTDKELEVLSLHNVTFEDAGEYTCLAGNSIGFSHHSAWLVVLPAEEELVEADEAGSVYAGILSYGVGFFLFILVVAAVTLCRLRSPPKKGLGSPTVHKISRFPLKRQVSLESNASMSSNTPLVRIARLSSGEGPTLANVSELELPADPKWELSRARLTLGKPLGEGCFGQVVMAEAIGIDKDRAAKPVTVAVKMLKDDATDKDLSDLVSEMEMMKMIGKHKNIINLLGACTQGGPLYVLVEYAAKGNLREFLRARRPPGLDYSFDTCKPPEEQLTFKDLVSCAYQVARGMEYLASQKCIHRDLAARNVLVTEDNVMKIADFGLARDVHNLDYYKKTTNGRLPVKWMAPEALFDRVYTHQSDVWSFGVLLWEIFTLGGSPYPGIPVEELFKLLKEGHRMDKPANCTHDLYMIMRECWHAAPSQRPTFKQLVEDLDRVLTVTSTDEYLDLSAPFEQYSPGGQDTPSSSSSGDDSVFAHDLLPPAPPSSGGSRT
T6 sequence (Q16659 whole entry): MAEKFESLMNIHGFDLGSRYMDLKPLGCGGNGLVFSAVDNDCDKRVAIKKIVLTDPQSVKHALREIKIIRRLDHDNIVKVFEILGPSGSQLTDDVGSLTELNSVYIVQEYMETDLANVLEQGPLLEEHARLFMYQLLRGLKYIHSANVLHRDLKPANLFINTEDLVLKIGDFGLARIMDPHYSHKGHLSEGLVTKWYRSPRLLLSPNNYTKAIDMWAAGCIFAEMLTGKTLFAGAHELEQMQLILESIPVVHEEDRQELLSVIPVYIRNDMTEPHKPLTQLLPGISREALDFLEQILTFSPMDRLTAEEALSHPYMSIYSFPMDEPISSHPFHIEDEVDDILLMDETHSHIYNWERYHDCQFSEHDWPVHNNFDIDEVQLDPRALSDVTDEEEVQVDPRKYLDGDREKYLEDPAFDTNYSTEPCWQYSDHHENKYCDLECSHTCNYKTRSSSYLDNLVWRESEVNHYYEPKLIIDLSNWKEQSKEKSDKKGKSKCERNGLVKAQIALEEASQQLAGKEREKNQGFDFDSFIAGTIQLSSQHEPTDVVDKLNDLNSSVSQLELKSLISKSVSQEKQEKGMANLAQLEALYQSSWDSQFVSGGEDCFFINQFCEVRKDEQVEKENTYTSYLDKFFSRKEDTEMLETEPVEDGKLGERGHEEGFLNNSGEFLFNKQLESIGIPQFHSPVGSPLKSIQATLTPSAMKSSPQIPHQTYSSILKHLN
T2 sequence (P50750 whole entry): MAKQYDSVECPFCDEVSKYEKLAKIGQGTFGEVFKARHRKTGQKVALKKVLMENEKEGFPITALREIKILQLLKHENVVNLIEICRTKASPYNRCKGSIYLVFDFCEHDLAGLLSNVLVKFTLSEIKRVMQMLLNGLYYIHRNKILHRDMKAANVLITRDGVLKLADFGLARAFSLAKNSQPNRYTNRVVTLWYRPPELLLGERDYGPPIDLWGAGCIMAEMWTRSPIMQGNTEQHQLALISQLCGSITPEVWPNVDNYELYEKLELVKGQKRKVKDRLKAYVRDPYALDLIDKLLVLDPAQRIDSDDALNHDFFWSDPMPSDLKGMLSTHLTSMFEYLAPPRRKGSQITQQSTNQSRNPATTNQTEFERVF

CNc1nc(Nc2ccc(C(=O)N3CCC(N4CCOCC4)CC3)c3c2OCO3)nc2[nH]cc(Cl)c12 [Compound 75, (7-((5-chloro-4-(methylamino)-7H-pyrrolo[2,3-d]pyrimidin-2-yl)amino)benzo[d][1,3]dioxol-4-yl)(4-morpholinopiperidin-1-yl)methanone]
remaining binding at 1 µM (panel of 468 kinases [1]): 100%
remaining binding at 1 µM (panel of 468 kinases [2]): 100%
remaining binding at 1 µM (panel of 468 kinases [3]): 18%
remaining binding at 1 µM (panel of 468 kinases [4]): 98%
remaining binding at 1 µM (panel of 468 kinases [5]): 73%
remaining binding at 1 µM (panel of 468 kinases [6]): 91%
remaining binding at 1 µM (panel of 468 kinases [7]): 59%
remaining binding at 1 µM (panel of 468 kinases [8]): 100%
remaining binding at 1 µM (panel of 468 kinases [9]): 89%
remaining binding at 1 µM (panel of 468 kinases [10]): 0%
remaining binding at 1 µM (panel of 468 kinases [11]): 100%
remaining binding at 1 µM (panel of 468 kinases [12]): 100%

CNc1nc(Nc2ccc(S(=O)(=O)N3CCC(N4CCOCC4)CC3)cc2OC)nc2[nH]cc(Cl)c12 [Compound 12, 5-chloro-N2-(2-methoxy-4-((4-morpholinopiperidin-1-yl)sulfonyl)phenyl)-N4-methyl-7H-pyrrolo[2,3-d]pyrimidine-2,4-diamine]
remaining binding at 1 µM (panel of 468 kinases [1]): 100%
remaining binding at 1 µM (panel of 468 kinases [2]): 100%
remaining binding at 1 µM (panel of 468 kinases [3]): 8.8%
remaining binding at 1 µM (panel of 468 kinases [4]): 100%
remaining binding at 1 µM (panel of 468 kinases [5]): 67%
remaining binding at 1 µM (panel of 468 kinases [6]): 100%
remaining binding at 1 µM (panel of 468 kinases [7]): 72%
remaining binding at 1 µM (panel of 468 kinases [8]): 100%
remaining binding at 1 µM (panel of 468 kinases [9]): 100%
remaining binding at 1 µM (panel of 468 kinases [10]): 28%
remaining binding at 1 µM (panel of 468 kinases [11]): 100%
remaining binding at 1 µM (panel of 468 kinases [12]): 100%

CNc1nc(Nc2ccc(P3(=O)CCN(C4CCOCC4)CC3)cc2OC)nc2[nH]cc(Cl)c12 [Compound 77, 4-(4-((5-chloro-4-(methylamino)-7H-pyrrolo[2,3-d]pyrimidin-2-yl)amino)-3-methoxyphenyl)-1-(tetrahydro-2H-pyran-4-yl)-1,4-azaphosphinane 4-oxide]
remaining binding at 1 µM (panel of 468 kinases [1]): 81%
remaining binding at 1 µM (panel of 468 kinases [2]): 100%
remaining binding at 1 µM (panel of 468 kinases [3]): 0.05%
remaining binding at 1 µM (panel of 468 kinases [4]): 100%
remaining binding at 1 µM (panel of 468 kinases [5]): 60%
remaining binding at 1 µM (panel of 468 kinases [6]): 99%
remaining binding at 1 µM (panel of 468 kinases [7]): 64%
remaining binding at 1 µM (panel of 468 kinases [8]): 100%
remaining binding at 1 µM (panel of 468 kinases [9]): 100%
remaining binding at 1 µM (panel of 468 kinases [10]): 39%
remaining binding at 1 µM (panel of 468 kinases [11]): 100%
remaining binding at 1 µM (panel of 468 kinases [12]): 95%
